The text below walks through data of US5608091A, “Quinizarin compound, method for production thereof, and use therefor” (Nippon Shokubai Co., Ltd., priority 1993, dated 1997).

Holding throughout (type): physicochemical
Data set [1] in a line: Solubility in toluene and methyl ethyl ketone, three-point scale. An excerpt:
In these tables, the solubility is rated on the three-point scale, wherein Δ stands for a solubility of less than 1% by weight, .largecircle. for a solubility in the approximate range of 1 to 3% by weight, and .circleincircle. for a solubility of not less than 3% by weight.

Data set [2] can be described thus: Visible absorption spectrum (λmax, ε). The settings on record: for ε: in M-1 cm-1 (unit assumed).
The nature of a further data set: Color tone of the dye. As to conditions: Tables 1-9.

For `CCCCOC(=O)c1ccc(Nc2c(F)c(F)c3c(c2F)C(=O)c2c(O)ccc(O)c2C3=O)cc1` [(6)], the “Solubility in methyl ethyl ketone” value in data set [1] is on record as “.largecircle. (a solubility in the approximate range of 1 to 3% by weight)”. In addition, the Solubility in toluene entry in data set [1] (in toluene) is on record as “.largecircle. (a solubility in the approximate range of 1 to 3% by weight)”. In data set [2] (in chloroform), this compound yielded a λ max of 528 nm. The compound also displayed a ε in data set [2] (in chloroform, at λ max) of 17900. The Color tone entry in “Color tone of the dye” is reported as “Magenta”.
Turning to `O=C1c2c(O)ccc(O)c2C(=O)c2c(F)c(Nc3ccccc3)c(Nc3ccccc3)c(F)c21` [(120)], the “Solubility in methyl ethyl ketone” value in data set [1] was “Δ (a solubility of less than 1% by weight)”. Further, the Solubility in toluene entry in data set [1] (in toluene) was “Δ (a solubility of less than 1% by weight)”. Further, the λ max in data set [2] (in chloroform) is 648 nm. This compound also showed a ε in data set [2] (in chloroform, at λ max) of 19800. For the same compound, the Color tone entry in the data set “Color tone of the dye” is listed as “Cyan”.
`CC(C)c1cccc(C(C)C)c1Nc1c(F)c(F)c2c(c1F)C(=O)c1c(O)ccc(O)c1C2=O` [(25)]: in data set [1], the “Solubility in methyl ethyl ketone” value is listed as “.largecircle. (a solubility in the approximate range of 1 to 3% by weight)”. Further, the Solubility in toluene result in data set [1] (in toluene) is “.circleincircle. (a solubility of not less than 3% by weight)”. The compound further came in with a λ max in data set [2] (in chloroform) of 530 nm. In data set [2] (in chloroform, at λ max), this compound yielded a ε of 12800. For the same compound, in “Color tone of the dye”, the Color tone entry is “Magenta”.
On to `CCOC(=O)c1cccc(Nc2c(F)c(F)c3c(c2F)C(=O)c2c(O)ccc(O)c2C3=O)c1` [(4)], for which the “Solubility in methyl ethyl ketone” value in data set [1] is recorded as “.largecircle. (a solubility in the approximate range of 1 to 3% by weight)”. Further, the Solubility in toluene entry in data set [1] (in toluene) is reported as “.largecircle. (a solubility in the approximate range of 1 to 3% by weight)”. For the same compound, the λ max in data set [2] (in chloroform) was determined as 527 nm. In data set [2] (in chloroform, at λ max), this compound returned a ε of 15300. In addition, the Color tone result in “Color tone of the dye” is given as “Magenta”.
Take `CCCCOC(=O)c1ccccc1Nc1c(F)c(F)c2c(c1F)C(=O)c1c(O)ccc(O)c1C2=O` [(5)]: the “Solubility in methyl ethyl ketone” value in data set [1] is recorded as “.circleincircle. (a solubility of not less than 3% by weight)”. Also, the Solubility in toluene result in data set [1] (in toluene) is listed as “.circleincircle. (a solubility of not less than 3% by weight)”. Further, the λ max in data set [2] (in chloroform) is listed as 530 nm. The compound also displayed a ε in data set [2] (in chloroform, at λ max) of 8600. In addition, the Color tone entry in “Color tone of the dye” is “Magenta”.
As for `COc1cccc(Nc2c(F)c(F)c3c(c2F)C(=O)c2c(O)ccc(O)c2C3=O)c1` [(16)], in data set [1], the “Solubility in methyl ethyl ketone” value is “.largecircle. (a solubility in the approximate range of 1 to 3% by weight)”. In addition, the Solubility in toluene entry in data set [1] (in toluene) is on record as “.largecircle. (a solubility in the approximate range of 1 to 3% by weight)”. The compound also showed a λ max in data set [2] (in chloroform) of 532 nm. The ε in data set [2] (in chloroform, at λ max) is on record as 16300. In addition, the Color tone entry in the data set “Color tone of the dye” is on record as “Magenta”.
`CCCCCCSc1c(F)c2c(c(F)c1SCCCCCC)C(=O)c1c(O)ccc(O)c1C2=O` [(303)]: the “Solubility in methyl ethyl ketone” value in data set [1] is “.largecircle. (a solubility in the approximate range of 1 to 3% by weight)”. In addition, the Solubility in toluene entry in data set [1] (in toluene) is “.largecircle. (a solubility in the approximate range of 1 to 3% by weight)”. In data set [2] (in chloroform), this compound showed a λ max of 506 nm. In data set [2] (in chloroform, at λ max), this compound gave a ε of 11300. Further, the Color tone entry in “Color tone of the dye” was “Orange”.
For `COc1cccc(Nc2c(F)c3c(c(F)c2Nc2cccc(OC)c2)C(=O)c2c(O)ccc(O)c2C3=O)c1` [(133)], in data set [1], the “Solubility in methyl ethyl ketone” value was “.largecircle. (a solubility in the approximate range of 1 to 3% by weight)”. In addition, in data set [1] (in toluene), the Solubility in toluene result was “.largecircle. (a solubility in the approximate range of 1 to 3% by weight)”. In addition, the λ max in data set [2] (in chloroform) is 651 nm. Further, the ε in data set [2] (in chloroform, at λ max) is recorded as 13400. Further, in “Color tone of the dye”, the Color tone result is on record as “Cyan”.
As for `CC(C)(C)c1ccc(Nc2c(F)c(F)c3c(c2F)C(=O)c2c(O)ccc(O)c2C3=O)cc1` [(13)], the “Solubility in methyl ethyl ketone” value in data set [1] is “.largecircle. (a solubility in the approximate range of 1 to 3% by weight)”. Moreover, the Solubility in toluene result in data set [1] (in toluene) is recorded as “.largecircle. (a solubility in the approximate range of 1 to 3% by weight)”. This compound had a λ max in data set [2] (in chloroform) of 540 nm. In data set [2] (in chloroform, at λ max), this compound showed a ε of 11900. The Color tone entry in the data set “Color tone of the dye” is given as “Magenta”.
With `COc1ccc(Sc2c(F)c3c(c(F)c2Sc2ccc(OC)cc2)C(=O)c2c(O)ccc(O)c2C3=O)cc1` [(302)], the “Solubility in methyl ethyl ketone” value in data set [1] is recorded as “.largecircle. (a solubility in the approximate range of 1 to 3% by weight)”. Besides, the Solubility in toluene entry in data set [1] (in toluene) is on record as “.largecircle. (a solubility in the approximate range of 1 to 3% by weight)”. This compound also displayed a λ max in data set [2] (in chloroform) of 504 nm. The ε in data set [2] (in chloroform, at λ max) came out at 15100. Besides, the Color tone result in “Color tone of the dye” is on record as “Cinnabar”.
As for `O=C(O)c1c(F)c(F)c(Sc2c(F)c3c(c(F)c2Sc2c(F)c(F)c(C(=O)O)c(F)c2F)C(=O)c2c(O)ccc(O)c2C3=O)c(F)c1F` [(299)], in data set [1], the “Solubility in methyl ethyl ketone” value is “Δ (a solubility of less than 1% by weight)”. Further, in data set [1] (in toluene), the Solubility in toluene result was “Δ (a solubility of less than 1% by weight)”. In data set [2] (in chloroform), this compound had a λ max of 510 nm. This compound had a ε in data set [2] (in chloroform, at λ max) of 12600. Also, the Color tone entry in “Color tone of the dye” is recorded as “Cinnabar”.
With `CCOC(=O)c1cccc(Nc2c(F)c3c(c(F)c2Sc2ccccc2)C(=O)c2c(O)ccc(O)c2C3=O)c1` [(115)], the λ max in data set [2] (in chloroform) was 540 nm. Also, in data set [2] (in chloroform, at λ max), the ε was determined as 17000.
Take `CCCCNc1c(F)c2c(c(NCCCC)c1NCCCC)C(=O)c1c(O)ccc(O)c1C2=O` [(248)]: in data set [1], the “Solubility in methyl ethyl ketone” value was “.largecircle. (a solubility in the approximate range of 1 to 3% by weight)”. Moreover, the Solubility in toluene result in data set [1] (in toluene) was “.largecircle. (a solubility in the approximate range of 1 to 3% by weight)”. The compound further showed a λ max in data set [2] (in chloroform) of 614 nm. In data set [2] (in chloroform, at λ max), the ε turned out to be 14900. In addition, the Color tone result in the data set “Color tone of the dye” is given as “Blue”.
In the case of `N#Cc1ccc(Nc2c(F)c(F)c3c(c2F)C(=O)c2c(O)ccc(O)c2C3=O)cc1` [(10)], the “Solubility in methyl ethyl ketone” value in data set [1] is reported as “Δ (a solubility of less than 1% by weight)”. The Solubility in toluene result in data set [1] (in toluene) was “Δ (a solubility of less than 1% by weight)”. Moreover, the λ max in data set [2] (in chloroform) is reported as 523 nm. Further, the ε in data set [2] (in chloroform, at λ max) is 20600. The Color tone entry in “Color tone of the dye” was “Magenta”.
For the compound `CCCCOC(=O)c1ccccc1Nc1c(F)c2c(c(F)c1Nc1ccccc1C(=O)OCCCC)C(=O)c1c(O)ccc(O)c1C2=O` [(122)], in data set [1], the “Solubility in methyl ethyl ketone” value is recorded as “.largecircle. (a solubility in the approximate range of 1 to 3% by weight)”. Besides, in data set [1] (in toluene), the Solubility in toluene entry was “.largecircle. (a solubility in the approximate range of 1 to 3% by weight)”. For the same compound, the λ max in data set [2] (in chloroform) was 614 nm. In data set [2] (in chloroform, at λ max), the ε amounted to 14700. For the same compound, the Color tone result in “Color tone of the dye” is given as “Blue”.
With `CC(C)c1cccc(C(C)C)c1Nc1ccc2c(c1)C(=O)c1c(O)ccc(O)c1C2=O` [(99)], the Solubility result in data set [1] (in toluene) is given as “Not less than 3 % by weight”. Besides, in data set [2] (in toluene), the λ max came out at 560 nm and the ε came out at 14850.
In the case of `CCOC(=O)c1cccc(Nc2c(F)c3c(c(F)c2Nc2cccc(C(=O)OCC)c2)C(=O)c2c(O)ccc(O)c2C3=O)c1` [(121)], in data set [1], the “Solubility in methyl ethyl ketone” value is reported as “.largecircle. (a solubility in the approximate range of 1 to 3% by weight)”. The Solubility in toluene result in data set [1] (in toluene) was “.largecircle. (a solubility in the approximate range of 1 to 3% by weight)”. Besides, in data set [2] (in chloroform), the λ max was 644 nm. Also, in data set [2] (in chloroform, at λ max), the ε turned out to be 20100. The Color tone entry in the data set “Color tone of the dye” is given as “Cyan”.
For the compound `O=C1c2c(O)ccc(O)c2C(=O)c2c(F)c(SC3CCCCC3)c(SC3CCCCC3)c(F)c21` [(306)], the “Solubility in methyl ethyl ketone” value in data set [1] is “.largecircle. (a solubility in the approximate range of 1 to 3% by weight)”. Also, the Solubility in toluene entry in data set [1] (in toluene) was “.circleincircle. (a solubility of not less than 3% by weight)”. In data set [2] (in chloroform), the λ max is recorded as 508 nm. The compound also had a ε in data set [2] (in chloroform, at λ max) of 14000. For the same compound, the Color tone entry in “Color tone of the dye” was “Orange”.
In the same order, the values of `O=C1c2c(O)ccc(O)c2C(=O)c2c(Sc3ccccc3)c(Sc3ccccc3)c(Sc3ccccc3)c(Sc3ccccc3)c21` [(307)] are “.largecircle. (a solubility in the approximate range of 1 to 3% by weight)”, “.largecircle. (a solubility in the approximate range of 1 to 3% by weight)”, 495 nm, 12600 and “Brown”.
In the same order, the values of `O=C1c2c(O)ccc(O)c2C(=O)c2c(F)c(Nc3ccc([N+](=O)[O-])cc3)c(F)c(F)c21` [(12)] are “Δ (a solubility of less than 1% by weight)”, “Δ (a solubility of less than 1% by weight)”, 521 nm, 16300 and “Magenta”.
In the same order, the values of `O=C1c2c(O)ccc(O)c2C(=O)c2c(F)c(Sc3ccccc3)c(Sc3ccccc3)c(F)c21` [(298)] are “.largecircle. (a solubility in the approximate range of 1 to 3% by weight)”, “.circleincircle. (a solubility of not less than 3% by weight)”, 489 nm, 12700 and “Orange”.
Regarding `O=C1c2c(O)ccc(O)c2C(=O)c2c(F)c(Oc3ccccc3)c(Nc3c(Cl)cccc3Cl)c(F)c21` [(110)], in data set [2] (in chloroform), the λ max is reported as 521.0 nm. In data set [2] (in chloroform, at λ max), the ε was found to be 17900.
On to `CC(C)c1cccc(C(C)C)c1Nc1c(F)c2c(c(Nc3c(C(C)C)cccc3C(C)C)c1Nc1c(C(C)C)cccc1C(C)C)C(=O)c1c(O)ccc(O)c1C2=O` [Dye (245), 5,6,7-tris(2,6-diisopropylanilino)-8-fluoroquinizarin], for which the ε in data set [2] (in ethyl cellosolve) is listed as 29200.
In data set [2] (in methanol), `O=C1c2c(O)ccc(O)c2C(=O)c2c(F)c(Nc3ccc(S(=O)(=O)O)cc3)c(F)c(F)c21` [(27)] came in with a λ max of 521.5 nm and a ε of 10600.
